Legend:
[1] = biological target: T1, IL-8 type β receptor (IL-8Rβ) (Homo sapiens, UniProt P25025); experiment: [125I] IL-8 binding assay (WGA-SPA beads, IL-8Rβ membranes); details: 20 uM compound; [125I] IL-8, IL-8Rβ membranes
T1 construct: purchased BioSignal, Montreal, Canada; host or cells: Sf9 cells
T1 sequence (P25025 1-360): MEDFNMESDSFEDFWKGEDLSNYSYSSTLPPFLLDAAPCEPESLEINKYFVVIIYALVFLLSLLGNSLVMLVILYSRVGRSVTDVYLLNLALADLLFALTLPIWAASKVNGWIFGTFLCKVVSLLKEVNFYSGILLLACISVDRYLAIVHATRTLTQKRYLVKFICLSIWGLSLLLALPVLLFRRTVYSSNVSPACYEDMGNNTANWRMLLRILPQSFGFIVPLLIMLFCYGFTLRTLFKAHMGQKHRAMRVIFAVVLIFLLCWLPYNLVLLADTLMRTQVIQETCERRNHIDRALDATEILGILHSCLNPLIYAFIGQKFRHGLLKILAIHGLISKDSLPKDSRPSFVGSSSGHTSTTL
Method: IL-8 (human recombinant) was obtained from NEN Life Science Products, Inc., Boston, Mass., with specific activity of 2200 Ci/mmol. Recombinant human IL-8 was obtained from R&D Systems, Minneapolis, Minn. IL-8 type β receptor membranes were prepared from […] co-expressed with Gαi3β1γ2 proteins by BioSignal™, Montreal, Canada. Wheat Germ Agglutinin Scintillation Proximity Assay Beads were obtained from Amersham Pharmacia Biotech, Piscataway, N.J. All assays were performed in a 96-well, solvent resistant, white PicoPlate obtained from Packard Instruments. […] The assay was initiated by the addition of WGA-SPA beads in 25 mM Hepes (pH 7.4) containing 2 mM CaCl2 and 1 mM MgCl2. After 4–6 hours of gentle agitation at room temperature, the plate was counted on the Packard TopCount liquid scintillation counter.

[2] = test system: polymorphonuclear neutrophils (PMNs); experiment: GRO-α driven chemotaxis assay with PMNs (ChemoTx plate); format: cell-based; details: 20 μM compound; 50 nM GRO-α, human PMNs
Method: Peripheral blood from healthy human volunteers was collected into heparin, diluted in an equal volume of PBS, layered over Ficoll-Paque Plus (Pharmacia Biotech, Uppsala, Sweden), and spun at 400×g for 30 min. The PMN rich fraction was removed and residual erythrocytes were lysed with hypotonic saline. The polymorphonuclear neutrophils (PMNs) were washed once with assay buffer (Dulbecco's PBS containing divalent cations and 0.1% endotoxin-free BSA), and resuspended at 1E7 cells/mL in the same buffer. PMNs were loaded with 5 μM calcein AM (Molecular Probes, Eugene, Oreg.), washed twice and resuspended in assay buffer.
Growth Regulatory Oncogene a (GRO-α) driven chemotaxis assays were performed according to the following protocol. […] Test compounds were dissolved in DMSO (100%) at 20 mM and diluted in assay buffer to the desired concentrations; final DMSO concentration was 0.2%. Neutrophil migration proceeded for 40 min at 37° C. in a humidified incubator with 5% CO2. After removing nonmigrated cells from the top of the plate, migrated cells were quantified by reading fluorescence on a Wallac Victor.
The ratio of the positive to negative controls represents the chemotactic index of the cells. The results from this assay are reported in Tables 3–5, under the column headings IL-8 and GRO-α, and under the sub-column headings ChTx (for chemotaxis).

Row | SMILES | IL-8 Binding @ 20 uM, % [1] | GRO-α ChTx @ 20 μM, % [2]
1 | O=C(NC(c1ccccc1)c1ccccc1)c1ccc(Cl)[n+]([O-])c1 | * (“*” for % values of less than or equal to 40) | ** (“**” for % values greater than 40)
2 | O=C(Nc1ccccc1F)c1ccc(Cl)[n+]([O-])c1 | * (“*” for % values of less than or equal to 40) | ** (“**” for % values greater than 40)
3 | O=C(Nc1cc(C(F)(F)F)cc(C(F)(F)F)c1)c1ccc(Cl)[n+]([O-])c1 | * (“*” for % values of less than or equal to 40) | * (“*” for % values of less than or equal to 40)
4 | O=C(Nc1cccc(OC(F)(F)F)c1)c1ccc(Cl)[n+]([O-])c1 | * (“*” for % values of less than or equal to 40) | * (“*” for % values of less than or equal to 40)
5 | Cc1cc(F)ccc1NC(=O)c1ccc(Cl)[n+]([O-])c1 | * (“*” for % values of less than or equal to 40) | ** (“**” for % values greater than 40)
6 | O=C(Nc1cccc(F)c1)c1ccc(Cl)[n+]([O-])c1 | * (“*” for % values of less than or equal to 40) | ** (“**” for % values greater than 40)
7 | O=C(Nc1ccc(I)cc1)c1ccc(Cl)[n+]([O-])c1 | * (“*” for % values of less than or equal to 40) | ** (“**” for % values greater than 40)
8 | CC(C)(C)c1ccc(NC(=O)c2ccc(Cl)[n+]([O-])c2)cc1 | * (“*” for % values of less than or equal to 40) | ** (“**” for % values greater than 40)
9 | CCOc1cccc(NC(=O)c2ccc(Cl)[n+]([O-])c2)c1 | * (“*” for % values of less than or equal to 40) | C*
10 | NC(=O)c1cccc(NC(=O)c2ccc(Cl)[n+]([O-])c2)c1 | * (“*” for % values of less than or equal to 40) | * (“*” for % values of less than or equal to 40)
11 | O=C(NCc1ccccc1)c1ccc(Cl)[n+]([O-])c1 | * (“*” for % values of less than or equal to 40) | * (“*” for % values of less than or equal to 40)
12 | O=C(NCc1ccc(F)cc1)c1ccc(Cl)[n+]([O-])c1 | * (“*” for % values of less than or equal to 40) | * (“*” for % values of less than or equal to 40)
13 | O=C(NC1CCCC1)c1ccc(Cl)[n+]([O-])c1 | * (“*” for % values of less than or equal to 40) | * (“*” for % values of less than or equal to 40)
14 | O=C(NCc1ccco1)c1ccc(Cl)[n+]([O-])c1 | * (“*” for % values of less than or equal to 40) | * (“*” for % values of less than or equal to 40)
15 | O=C(Nc1ccc(F)cc1)c1ccc(Cl)[n+]([O-])c1 [Cl—, 6-Chloro-N-(4-fluoro-phenyl)-1-oxy-nicotinamide] | **(1) (“**” for % values greater than 40) | ** (“**” for % values greater than 40)
16 | CS(=O)(=O)c1ccc(C(=O)Nc2ccc(F)cc2)c[n+]1[O-] [drawing 44] | ** (“**” for % values greater than 40) | ** (“**” for % values greater than 40)
17 | O=C(Nc1ccc(F)cc1)c1ccc(S(=O)(=O)c2ccccc2)[n+]([O-])c1 [drawing 47] | ** (“**” for % values greater than 40) | ** (“**” for % values greater than 40)
